# According to patent US10495560B2, “Method of screening drugs” (KOREA RESEARCH INSTITUTE OF STANDARDS AND SCIENCE, priority 2015, dated 2019):
# How the values were obtained:
# [1] = tested on: ARPE-19 human retinal epithelial cells; experiment: Blind test: screening of drugs by capacitance of the cell layer; assay type: cell-based
# Experimental: After culturing ARPE-19 (retinal pigmented epithelium, American Type Culture Collection (ATCC), ATCC® CRL-2302™), which is human retinal epithelial cells, instead of bEND.3 similarly to the case of using bEND.3, the cultured ARPE-19 was seeded in the same sensor as that used at the time of measuring bEND.3 so that coverage was 100%. Then, stabilization (fixation) was performed under the same conditions and time as those at the time of stabilizing bEND.3.
# After the cells were cultured for stabilization for 24 hours, the culture medium was exchanged.
# As the exchanged medium, a reference culture medium containing tumor necrosis factor-alpha (TNF-α, R&D system, 210-TA-020/CF, 10 ng/ml) or a reference culture medium containing tumor necrosis factor-alpha (TNF-α, R&D system, 210-TA-020/CF 10 ng/ml) and TNF-α antibody (Human TNF-alpha MAb, R&D system, MAB610, 2 μg/ml) was prepared. In this case, as the reference culture medium, DMEM:F12 containing 1 vol % penicillin-streptomycin (Gibco) was used similarly to the case of using bEND.3.
# After stabilization was performed, medium exchange was randomly performed on each well using the prepared culture media. In this case, medium exchange was performed on a well (reference sample) at a predetermined position using a pure reference culture medium not containing TNF-α or TNF-α antibody, such that a frequency-dependent reference capacitance value at each measurement time was also simultaneously obtained.
# Capacitance was measured under the same conditions and the same time interval as those in the case of using bEND.3.
# After measurement was performed, in each well, in the case in which an absolute value of an alpha value at a time point (t=50 h based on stabilization) after 26 hours of medium exchange is smaller than an absolute value of a reference alpha value at the same time point, the drug was screened as a drug increasing paracellular permeability. […]
# [2] = tested on: tight junction proteins (ZO-1) in ARPE-19 cells; experiment: Immunocytochemistry (ZO-1 and DAPI staining) after the blind test; assay type: cell-based, human; settings: FIG. 9
# Experimental: After performing the screening, as described above, fluorescent staining (using ZO-1 and DAPI) was performed on the endothelial cell layer fixed between two electrodes using immunocytochemistry, and then the endothelial cell layer was observed. FIG. 9A illustrates results of the reference sample, FIG. 9B illustrates results of the sample of which the medium was exchanged with the medium containing TNF-α, and FIG. 9C illustrates results of the sample of which the medium was exchanged with the medium containing both of TNF-α and TNF-α antibody.
substance,measurement,setting,value
TNF-α,standardized capacitance value,"[1]; 100 Hz, standardized to start of stabilization, 48 hours after medium exchange (t=72 h), reference sample 1.44",1.31
same,time for which the standardized capacitance value was continuously decreased,"[1]; 100 Hz, based on a time point (t=34 h) after 10 hours of medium exchange",48 h
same,screening result (drug increasing paracellular permeability),"[1]; TNF-α 10 ng/ml, three independent criteria (alpha value at 26 h, standardized capacitance at 48 h, continuous decrease at 100 Hz)",screened as wells contacting the drug increasing paracellular permeability
same,alignment of tight junction proteins,[2],disturbed
